# Laboratory results reported in ChEMBL document CHEMBL5316264, “Identification of N- and C-3-Modified Laudanosoline Derivatives as Novel Influenza PAN Endonuclease Inhibitors” (J Med Chem, 2023).
# pIC50: −log10 of the molar value.
# Molecular target: Polymerase acidic protein (Influenza A virus (A/Puerto Rico/8/1934(H1N1)), UniProt P03433)
# Conditions: hek293t
row,SMILES,pIC50
1,CCCOC(=O)[C@@H]1Cc2cc(O)c(O)cc2[C@H](Cc2ccc(O)c(O)c2)N1C(=O)c1ccccc1Cl,4.97
2,O=C1c2c(O)c(=O)ccn2N([C@@H]2c3ccccc3SCc3c2ccc(F)c3F)[C@@H]2COCCN12 [BALOXAVIR],3.52
